This note sets out measurements from patent publication US7294639B2, “Biaromatic ligand activators of PPARγ receptors” (Galderma Research & Development, priority 2001, dated 2007).

The target in assay [1] is T1, chimeric Gal-PPARγ receptor (LBD) (Homo sapiens, UniProt P37231).
T1 construct: chimeric Gal-PPARγ receptor (LBD); expressed in transfected cells; host or cells: HeLa cells, stably transfected
T1 sequence (P37231 238-503 limits assumed): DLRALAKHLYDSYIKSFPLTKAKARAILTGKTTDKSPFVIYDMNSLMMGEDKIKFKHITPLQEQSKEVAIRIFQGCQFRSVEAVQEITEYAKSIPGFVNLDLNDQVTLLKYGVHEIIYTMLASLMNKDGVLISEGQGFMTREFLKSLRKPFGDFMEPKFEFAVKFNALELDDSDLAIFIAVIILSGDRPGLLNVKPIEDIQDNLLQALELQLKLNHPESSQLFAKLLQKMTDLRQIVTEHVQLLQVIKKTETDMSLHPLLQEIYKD
The assay can be described thus: Transactivation test, PPARγ agonist activity (luciferase). In kind it is cell-based. To be noted: concentration giving 50% activation relative to the reference agonist. As to the method:
The agonist activity towards the PPARγ receptors of the compounds according to the invention may be evaluated by transactivation tests.
The capacity of the molecules to activate and/or inhibit the PPARγ receptors is evaluated from Hela cells stably transfected with the chimeric Gal-PPARγ receptor (LBD).
96-well plates are inoculated at the rate of 10000 cells/100 μl/well in DMEM 10% SDL medium and then placed for 24 hours at 37° C., 7% CO2.
To determine the PPARγ agonist activity, the cells are then treated by addition of 5 μl/well of the molecules to be tested at the final concentration of 1 μM. Cells are also treated in parallel with a reference agonist, (−)-3-{4-[2-(benzooxazol-2-ylmethylamino)ethoxy]phenyl}-2-ethoxypropionic acid, 1 μM.
After another incubation of 24 hours at 37° C., 7% CO2, a luciferase assay is carried out with the aid of the “Steady-Glo Luciferase Assay System” kit from Promega. The luminescence is counted on a Microbeta Trilux microplate reader (Wallac).
The agonist activity of the test product will be expressed as a percentage activation relative to the control agonist, the reference agonist at 1 μM.
The AC50, expressed in nM, is determined as the concentration which makes it possible to obtain 50% activation of the basal signal relative to the reference agonist.

The target in assay [2] is T2, human PPARγ receptor (Homo sapiens, UniProt P37231).
T2 construct: made in house; host or cells: SF9 insect cells, recombinant baculovirus
T2 sequence (P19793 whole entry): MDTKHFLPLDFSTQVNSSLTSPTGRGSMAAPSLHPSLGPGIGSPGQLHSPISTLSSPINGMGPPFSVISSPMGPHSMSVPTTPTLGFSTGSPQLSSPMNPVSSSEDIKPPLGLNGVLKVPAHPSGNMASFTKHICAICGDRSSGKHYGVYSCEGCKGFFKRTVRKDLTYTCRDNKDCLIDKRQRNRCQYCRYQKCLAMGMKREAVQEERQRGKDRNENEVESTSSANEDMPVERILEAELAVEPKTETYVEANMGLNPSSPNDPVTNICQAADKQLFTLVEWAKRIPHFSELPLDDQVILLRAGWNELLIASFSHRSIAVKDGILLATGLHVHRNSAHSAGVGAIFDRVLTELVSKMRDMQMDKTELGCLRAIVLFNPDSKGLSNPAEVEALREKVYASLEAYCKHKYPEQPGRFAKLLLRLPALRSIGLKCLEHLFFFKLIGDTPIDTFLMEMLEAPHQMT
T2 sequence (P37231 whole entry): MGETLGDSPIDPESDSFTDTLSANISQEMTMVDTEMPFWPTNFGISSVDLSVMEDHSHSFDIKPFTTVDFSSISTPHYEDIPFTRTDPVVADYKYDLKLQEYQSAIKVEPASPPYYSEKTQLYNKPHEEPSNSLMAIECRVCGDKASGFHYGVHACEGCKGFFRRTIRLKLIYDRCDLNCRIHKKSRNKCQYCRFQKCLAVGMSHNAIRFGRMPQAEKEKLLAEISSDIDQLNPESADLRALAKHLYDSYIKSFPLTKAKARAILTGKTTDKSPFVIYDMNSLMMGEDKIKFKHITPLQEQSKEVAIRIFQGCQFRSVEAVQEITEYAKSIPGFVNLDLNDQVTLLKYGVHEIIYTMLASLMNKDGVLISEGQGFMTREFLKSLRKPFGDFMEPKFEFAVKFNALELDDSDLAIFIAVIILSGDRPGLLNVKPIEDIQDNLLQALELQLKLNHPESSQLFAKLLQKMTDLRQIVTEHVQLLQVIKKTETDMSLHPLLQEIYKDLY
The assay can be described thus: Binding test by competition with tritiated reference agonist (hydroxyapatite gel). To be noted: hPPARγ/RXRα heterodimers from SF9 insect cells. The protocol:
The affinity of the compounds of the invention for the human PPARγ receptor was determined in a test of binding, by competition for the attachment of a reference agonist, the following tritiated compound 5-{4-[2-(methylpyridin-2-ylamino)ethoxy]benzyl}thiazolidine-2,4-dione.
The receptors are obtained by infecting SF9 insect cells with a recombinant bacculovirus. They exist in the form of hPPARγ/RXRα heterodimers. The presence of RXRα increases the solubility and the stability of the hPPARγ receptor and, consequently, its biological activity, without as a result interfering in the determination of the binding constants.
The technique of adsorption on hydroxyapatite gel was used to separate the ligand bound to the receptor from the free ligand. The results are expressed as Kd value (nM) which represents the dissociation constant at equilibrium obtained for each compound.

`COC(=O)CCCCCCCCC(=O)N(C)Cc1cccc(-c2ccc(CC3SC(=O)NC3=O)cc2)c1` (centres unmarked) [Example 2, methyl 9-{[4′-(2,4-dioxothiazolidin-5-ylmethyl)biphenyl-3-ylmethyl]methylcarbamoyl}nonanoate]: the half-maximal activity concentration (AC50) (as a rule, the concentration at which the activity in the assay is half-maximal) in assay [1] came out at 55.5 nM.

Turning to `COC(=O)c1ccc(C(=O)N(C)Cc2cccc(-c3ccc(CC4SC(=O)NC4=O)cc3)c2)cc1` (centres unmarked) [Example 3, methyl N-[4′-(2,4-dioxothiazolidin-5-ylmethyl)biphenyl-3-ylmethyl]-N-methylterephthalamate], the dissociation constant (Kd) (usually the concentration at which binding is half-saturated) in assay [2] worked out at 375 nM. The AC50 in assay [1] worked out at 13.1 nM. `CN(Cc1cccc(-c2ccc(CC3SC(=O)NC3=O)cc2)c1)C(=O)CCC1CCCC1` (centres unmarked) [Example 4, 3-cyclopentyl-N-[4′-(2,4-dioxothiazolidin-5-ylmethyl)biphenyl-3-ylmethyl]-N-methylpropionamide] registered a dissociation constant (Kd) in assay [2] of 250 nM. Besides, the concentration at half-maximal activity (AC50) in assay [1] is 24.2 nM. As to `CN(Cc1cccc(-c2ccc(CC3SC(=O)NC3=O)cc2)c1)C(=O)c1cccc2ccccc12` (centres unmarked) [Example 5, N-[4′-(2,4-dioxothiazolidin-5-ylmethyl)biphenyl-3-ylmethyl]-N-methylnaphthalene-1-carboxamide], the Kd in assay [2] was determined as 500 nM. In assay [1], the concentration at half-maximal activity (AC50) is 23.3 nM. Turning to `CN(Cc1cccc(-c2ccc(CC3SC(=O)NC3=O)cc2)c1)C(=O)c1ccc2ccccc2c1` (centres unmarked) [Example 6, N-[4′-(2,4-dioxothiazolidin-5-ylmethyl)biphenyl-3-ylmethyl]-N-methylnaphthalene-2-carboxamide], the dissociation constant Kd in assay [2] came to 60 nM. In assay [1], this compound gave an AC50 of 4 nM.

In assay [1], `CN(Cc1cccc(-c2ccc(CC3SC(=O)NC3=O)cc2)c1)C(=O)COc1ccccc1` (centres unmarked) [Example 7, N-[4′-(2,4-dioxothiazolidin-5-ylmethyl)biphenyl-3-ylmethyl]-N-methyl-2-phenoxyacetamide] came in with an AC50 of 63.8 nM. This counts as double-digit nanomolar. `CN(Cc1cccc(-c2ccc(CC3SC(=O)NC3=O)cc2)c1)C(=O)c1cccn1C` (centres unmarked) [Example 8, N-[4′-(2,4-dioxothiazolidin-5-ylmethyl)biphenyl-3-ylmethyl]-N-methyl-1-methyl-1H-pyrrole-2-carboxamide] had an AC50 in assay [1] of 307 nM. In assay [1], `CN(Cc1cccc(-c2ccc(CC3SC(=O)NC3=O)cc2)c1)C(=O)C12CC3CC(CC(C3)C1)C2` (centres unmarked) [Example 9, N-[4′-(2,4dioxothiazolidin-5-ylmethyl)biphenyl-3-ylmethyl]-N-methyladamantane-1-carboxamide] had an AC50 of 182 nM. In assay [2], `CN(Cc1cccc(-c2ccc(CC3SC(=O)NC3=O)cc2)c1)C(=O)c1ccc(-c2ccccc2)cc1` (centres unmarked) [Example 10, N-[4′-(2,4-dioxothiazolidin-5-ylmethyl)biphenyl-3-ylmethyl]-N-methylbiphenyl-4-carboxamide] registered a Kd of 60 nM. The AC50 in assay [1] was found to be 3.3 nM. `CN(Cc1cccc(-c2ccc(CC3SC(=O)NC3=O)cc2)c1)C(=O)c1cc2ccccc2s1` (centres unmarked) [Example 11, N-[4′-(2,4-dioxothiazolidin-5-ylmethyl)biphenyl-3-ylmethyl]-N-methylbenzo[b]thio-phene-2-carboxamide] yielded a dissociation constant (Kd) in assay [2] of 375 nM. In assay [1], this compound registered an AC50 of 15.1 nM. Regarding `CN(Cc1cccc(-c2ccc(CC3SC(=O)NC3=O)cc2)c1)C(=O)CCCCC(=O)c1ccccc1` (centres unmarked) [Example 12, N-[4′-(2,4-dioxothiazolidin-5-ylmethyl)biphenyl-3-ylmethyl]-N-methyl-6-oxo-6-phenylhexanamide], the affinity in assay [2], expressed as Kd, was 60 nM. In assay [1], the AC50 was determined as 3.2 nM.

Take `CN(Cc1cccc(-c2ccc(CC3SC(=O)NC3=O)cc2)c1)C(=O)c1ccc(N(C)C)c2ccccc12` (centres unmarked) [Example 13, 4dimethylamino-N-[4′-(2,4-dioxothiazolidin-5-ylmethyl)biphenyl-3-ylmethyl]-N-methylnaphthalene-1-carboxamide]: in assay [2], the Kd came out at 500 nM. Besides, the half-maximal activity concentration (AC50) in assay [1] came to 36.7 nM. `CN(Cc1cccc(-c2ccc(CC3SC(=O)NC3=O)cc2)c1)C(=O)c1ccc(S(C)(=O)=O)cc1` (centres unmarked) [Example 14, N-[4′-(2,4-dioxothiazolidin-5-ylmethyl)biphenyl-3-ylmethyl]-4-methanesulphonyl-N-methylbenzamide] came in with an AC50 in assay [1] of 143 nM.

As to `CN(Cc1cccc(-c2ccc(CC3SC(=O)NC3=O)cc2)c1)C(=O)c1ccc(C(=O)c2ccccc2)cc1` (centres unmarked) [Example 15, N-[4′-(2,4-dioxothiazolidin-5-ylmethyl)biphenyl-3-ylmethyl]-N-methyl-4-(1-phenylmethanoyl)benzamide], the dissociation constant Kd in assay [2] came out at 60 nM. Half-maximal activity in assay [1] (AC50) was put at 5 nM. In the same order, the values of `COCCOCOc1ccc2cc(C(=O)N(C)Cc3cccc(-c4ccc(CC5SC(=O)NC5=O)cc4)c3)ccc2c1` (centres unmarked) [Example 16, 6-(2-methoxyethoxymethoxy)-N-[4′-(2,4-dioxothiazolidin-5-ylmethyl)biphenyl-3-ylmethyl]-N-methylnapthalene-2-carboxamide] are 4 nM and 0.55 nM. For `CN(Cc1cccc(-c2ccc(CC3SC(=O)NC3=O)cc2)c1)C(=O)c1ccc2cc(O)ccc2c1` (centres unmarked) [Example 17, 6-hydroxy-N-[4′-(2,4-dioxothiazolidin-5-ylmethyl)biphenyl-3-ylmethyl]-N-methylnaphthalene-2-carboxamide], the Kd in assay [2] stood at 15 nM. Besides, the AC50 in assay [1] is 3.8 nM. The compound `CSc1ccc(C(=O)N(C)Cc2cccc(-c3ccc(CC4SC(=O)NC4=O)cc3)c2)cc1` (centres unmarked) [Example 18, N-[4′-(2,4-dioxothiazolidine-5-ylmethyl)biphenyl-3-ylmethyl]-N-methyl-4-methylsulphanylbenzamide] displayed an AC50 in assay [1] of 42.5 nM. Regarding `CCO[C@@H](Cc1ccc(-c2cccc(CN(C)C(=O)c3ccc(-c4ccccc4)cc3)c2)cc1)C(=O)O` [Example 19, (S)-3-(3′-{[(1-biphenyl-4-ylmethanoyl)methylamino]methyl}biphenyl-4-yl)-2-ethoxypropionic acid], binding in assay [2] was characterised by a dissociation constant (Kd) of 8 nM. For the same compound, half-maximal activity in assay [1] (AC50) was put at 2.9 nM.

On to `CCO[C@@H](Cc1ccc(-c2cccc(CN(C)C(=O)CCCCC(=O)c3ccccc3)c2)cc1)C(=O)O` [Example 20, (S)-2-ethoxy-3-(3′-{[methyl(6-oxo-6-phenylhexanoyl)amino]methyl}biphenyl-4-yl)propionic acid], for which the dissociation constant (Kd) in assay [2] is 9.5 nM. In addition, in assay [1], the concentration at half-maximal activity (AC50) worked out at 7.7 nM. For the compound `CN(C(=O)Nc1ccc2ccccc2c1)c1cccc(-c2ccc(CC3SC(=O)NC3=O)cc2)c1` (centres unmarked) [Example 21, 1-[4′-(2,4-dioxothiazolidin-5-ylmethyl)biphenyl-3-yl]-1-methyl-3-naphthalen-2-ylurea], the AC50 in assay [1] was 22 nM. Regarding `CN(C)c1ccc(NC(=O)N(C)c2cccc(-c3ccc(CC4SC(=O)NC4=O)cc3)c2)cc1` (centres unmarked) [Example 22, 3-(4-dimethylaminophenyl)-1-[4′-(2,4-dioxothiazolidin-5-ylmethyl)biphenyl-3-yl]-1-methylurea], the activity in assay [1] was half-maximal at 4.2 nM (AC50). `CCO[C@@H](Cc1ccc(-c2cccc(CN(C)C(=O)c3ccc4cc(OCOCCOC)ccc4c3)c2)cc1)C(=O)O` [Example 23, (S)-2-ethoxy-3-{3′-[({1-[6-(2-methoxyethoxymethoxy)naphthalen-2-yl]methanoyl}methylamino)methyl]biphenyl-4-yl}propionic acid]: the activity in assay [1] was half-maximal at 1 nM (AC50).
